Results as given in PubChem BioAssay AID1745844 (Carcinogenic Potency Database (CPDB), 2022).
Activity calls are given as the source filed them. How the calls were made is not given here.

Test system: rodent lifetime carcinogenesis bioassay, tumor incidence TD50
Assay: chronic cancer bioassays in animals – CPDB, compiled studies (AID 1745844)

## CC(O)CN(CC(C)O)N=O (centres undefined)
rat, strain Fischer 344, females, in drinking water, site: esophagus, lesion: carcinoma, dosed 42 weeks, study length 55 weeks
  TD50: 1.25 mg/kg/day
rat, strain Fischer 344, females, in drinking water, site: esophagus, lesion: several types, types named in the paper, dosed 42 weeks, study length 55 weeks
  TD50: 0.813 mg/kg/day
rat, strain Fischer 344, females, in drinking water, site: nasal cavity, lesion: olfactory carcinoma, dosed 42 weeks, study length 55 weeks
  TD50: 3.04 mg/kg/day
rat, strain MRC-Wistar, males, by gavage, site: prostate, lesion: carcinoma, dosed 74 weeks, study length 74 weeks
  TD50: 437 mg/kg/day
rat, strain Wistar, males, in drinking water, site: liver, lesion: hemangioma, dosed 45 weeks, study length 52 weeks
  TD50: 4.55 mg/kg/day
rat, strain Wistar, males, in drinking water, site: liver, lesion: hepatocellular carcinoma, dosed 45 weeks, study length 52 weeks
  TD50: 2.4 mg/kg/day
rat, strain Wistar, males, in drinking water, site: lung, lesion: adenocarcinoma, dosed 45 weeks, study length 52 weeks
  TD50: 3.36 mg/kg/day
rat, strain Wistar, males, in drinking water, site: lung, lesion: adenoma, dosed 45 weeks, study length 52 weeks
  TD50: 0.881 mg/kg/day
rat, strain Wistar, males, in drinking water, site: lung, lesion: carcinoma, combined glandular and squamous type, dosed 45 weeks, study length 52 weeks
  TD50: 9.48 mg/kg/day

## Nc1ccc(NCCO)c([N+](=O)[O-])c1
mouse, strain B6C3F1, females, by gavage, site: any site (literature study), lesion: several types, types named in the paper, dosed 104 weeks, study length 105 weeks
  TD50: 292 mg/kg/day
mouse, strain B6C3F1, females, by gavage, site: forestomach, lesion: squamous-cell papilloma, dosed 104 weeks, study length 105 weeks
  TD50: 721 mg/kg/day
mouse, strain B6C3F1, females, by gavage, site: lung, lesion: alveolar/bronchiolar adenoma + alveolar/bronchiolar carcinoma, dosed 104 weeks, study length 105 weeks
  TD50: 4670 mg/kg/day
mouse, strain B6C3F1, males, by gavage, site: liver, lesion: hepatocellular adenoma + hepatocellular carcinoma + neoplastic nodule, dosed 104 weeks, study length 105 weeks
  TD50: 427 mg/kg/day
mouse, strain B6C3F1, males, by gavage, site: liver, lesion: hepatocellular adenoma + hepatocellular carcinoma, dosed 104 weeks, study length 105 weeks
  TD50: 427 mg/kg/day
mouse, strain B6C3F1, males, by gavage, site: lung, lesion: alveolar/bronchiolar adenoma + alveolar/bronchiolar carcinoma, dosed 104 weeks, study length 105 weeks
  TD50: 1750 mg/kg/day
rat, strain Fischer 344, females, by gavage, site: any site (literature study), lesion: several types, types named in the paper, dosed 105 weeks, study length 106 weeks
  TD50: 4870 mg/kg/day (inactive)
rat, strain Fischer 344, males, by gavage, site: any site (literature study), lesion: several types, types named in the paper, dosed 105 weeks, study length 106 weeks
  TD50: 500 mg/kg/day (inactive)
rat, strain Fischer 344, males, by gavage, site: liver, lesion: hepatocellular adenoma + hepatocellular carcinoma + neoplastic nodule, dosed 105 weeks, study length 106 weeks
  TD50: 1.51e+06 mg/kg/day

## C=C(C)CCl
mouse, strain B6C3F1, females, by gavage, site: any site (literature study), lesion: several types, types named in the paper, dosed 103 weeks, study length 105 weeks
  TD50: 149 mg/kg/day
mouse, strain B6C3F1, females, by gavage, site: forestomach, lesion: squamous-cell carcinoma + squamous-cell papilloma, dosed 103 weeks, study length 105 weeks
  TD50: 82.3 mg/kg/day
mouse, strain B6C3F1, females, by gavage, site: forestomach, lesion: squamous-cell papilloma, dosed 103 weeks, study length 105 weeks
  TD50: 87.7 mg/kg/day
mouse, strain B6C3F1, females, by gavage, site: lung, lesion: alveolar/bronchiolar adenoma + alveolar/bronchiolar carcinoma, dosed 103 weeks, study length 105 weeks
  TD50: 5180 mg/kg/day
mouse, strain B6C3F1, males, by gavage, site: any site (literature study), lesion: several types, types named in the paper, dosed 103 weeks, study length 105 weeks
  TD50: 402 mg/kg/day
mouse, strain B6C3F1, males, by gavage, site: forestomach, lesion: squamous-cell carcinoma + squamous-cell papilloma, dosed 103 weeks, study length 105 weeks
  TD50: 73.5 mg/kg/day
mouse, strain B6C3F1, males, by gavage, site: forestomach, lesion: squamous-cell carcinoma, dosed 103 weeks, study length 105 weeks
  TD50: 432 mg/kg/day
mouse, strain B6C3F1, males, by gavage, site: forestomach, lesion: squamous-cell papilloma, dosed 103 weeks, study length 105 weeks
  TD50: 96.2 mg/kg/day
mouse, strain BDF1, females, inhaled, site: Harderian gland, lesion: adenoma, dosed 104 weeks, study length 104 weeks
  TD50: 665 mg/kg/day
mouse, strain BDF1, females, inhaled, site: forestomach, lesion: squamous-cell papilloma, dosed 104 weeks, study length 104 weeks
  TD50: 1850 mg/kg/day
mouse, strain BDF1, females, inhaled, site: liver, lesion: hepatocellular carcinoma, dosed 104 weeks, study length 104 weeks
  TD50: 60000 mg/kg/day
mouse, strain BDF1, females, inhaled, site: lung, lesion: alveolar/bronchiolar carcinoma, dosed 104 weeks, study length 104 weeks
  TD50: 6750 mg/kg/day
mouse, strain BDF1, males, inhaled, site: forestomach, lesion: squamous-cell carcinoma, dosed 104 weeks, study length 104 weeks
  TD50: 11500 mg/kg/day
mouse, strain BDF1, males, inhaled, site: forestomach, lesion: squamous-cell papilloma, dosed 104 weeks, study length 104 weeks
  TD50: 2040 mg/kg/day
mouse, strain BDF1, males, inhaled, site: lung, lesion: alveolar/bronchiolar adenoma, dosed 104 weeks, study length 104 weeks
  TD50: 1020 mg/kg/day
mouse, strain BDF1, males, inhaled, site: lung, lesion: alveolar/bronchiolar carcinoma, dosed 104 weeks, study length 104 weeks
  TD50: 1570 mg/kg/day
rat, strain Fischer 344, females, by gavage, site: any site (literature study), lesion: several types, types named in the paper, dosed 103 weeks, study length 105 weeks
  TD50: 323 mg/kg/day
rat, strain Fischer 344, females, by gavage, site: forestomach, lesion: papilloma, NOS, dosed 103 weeks, study length 105 weeks
  TD50: 320 mg/kg/day
rat, strain Fischer 344, females, by gavage, site: subcutaneous tissue, lesion: fibroma, dosed 103 weeks, study length 105 weeks
  TD50: 524 mg/kg/day
rat, strain Fischer 344, males, by gavage, site: any site (literature study), lesion: several types, types named in the paper, dosed 103 weeks, study length 105 weeks
  TD50: 109 mg/kg/day
rat, strain Fischer 344, males, by gavage, site: forestomach, lesion: papilloma, NOS, dosed 103 weeks, study length 105 weeks
  TD50: 68.7 mg/kg/day
rat, strain Fischer 344, males, by gavage, site: liver, lesion: hepatocellular adenoma + hepatocellular carcinoma + neoplastic nodule, dosed 103 weeks, study length 105 weeks
  TD50: 714 mg/kg/day
rat, strain Fischer 344, males, by gavage, site: testis, lesion: interstitial-cell tumor, dosed 103 weeks, study length 105 weeks
  TD50: 54 mg/kg/day

## CN=C(N)N
rat, strain Wistar, males, in feed, site: liver, lesion: hemangioma, dosed 68 weeks, study length 68 weeks
  TD50: 84 mg/kg/day

## Nc1nc(N)nc(-c2cc(Cl)ccc2Cl)n1
rat, strain Wistar, males, in feed, site: liver, lesion: one or several types, types not named, dosed 55 weeks, study length 55 weeks
  carcinogen call: negative (inactive)

## S=C([S-])NCCNC(=S)[S-].[Zn+2]
mouse, strain B6AKF1, females, oral dosing, site: any site (literature study), lesion: several types, types named in the paper, dosed 76 weeks, study length 76 weeks
  TD50: 1150 mg/kg/day (inactive)
mouse, strain B6AKF1, females, oral dosing, site: liver, lesion: hepatoma, dosed 76 weeks, study length 76 weeks
  carcinogen call: negative (inactive)
mouse, strain B6AKF1, females, oral dosing, site: lung, lesion: adenoma, dosed 76 weeks, study length 76 weeks
  TD50: 1150 mg/kg/day (inactive)
mouse, strain B6AKF1, males, oral dosing, site: any site (literature study), lesion: several types, types named in the paper, dosed 76 weeks, study length 76 weeks
  TD50: 715 mg/kg/day (inactive)
mouse, strain B6AKF1, males, oral dosing, site: liver, lesion: hepatoma, dosed 76 weeks, study length 76 weeks
  TD50: 903 mg/kg/day (inactive)
mouse, strain B6AKF1, males, oral dosing, site: lung, lesion: adenoma, dosed 76 weeks, study length 76 weeks
  carcinogen call: negative (inactive)
mouse, strain B6C3F1, females, oral dosing, site: any site (literature study), lesion: several types, types named in the paper, dosed 76 weeks, study length 76 weeks
  TD50: 1150 mg/kg/day (inactive)
mouse, strain B6C3F1, females, oral dosing, site: liver, lesion: hepatoma, dosed 76 weeks, study length 76 weeks
  carcinogen call: negative (inactive)
mouse, strain B6C3F1, females, oral dosing, site: lung, lesion: adenoma, dosed 76 weeks, study length 76 weeks
  TD50: 1150 mg/kg/day (inactive)
mouse, strain B6C3F1, males, oral dosing, site: any site (literature study), lesion: several types, types named in the paper, dosed 76 weeks, study length 76 weeks
  TD50: 189 mg/kg/day (inactive)
mouse, strain B6C3F1, males, oral dosing, site: liver, lesion: hepatoma, dosed 76 weeks, study length 76 weeks
  TD50: 244 mg/kg/day (inactive)
mouse, strain B6C3F1, males, oral dosing, site: lung, lesion: several types, types named in the paper, dosed 76 weeks, study length 76 weeks
  carcinogen call: negative (inactive)
mouse, strain CFLP, females, in feed, site: any site (literature study), lesion: several types, types named in the paper, dosed 92 weeks, study length 94 weeks
  carcinogen call: negative (inactive)
mouse, strain CFLP, females, in feed, site: liver, lesion: hepatocellular adenoma, dosed 92 weeks, study length 94 weeks
  TD50: 1730 mg/kg/day (inactive)
mouse, strain CFLP, females, in feed, site: liver, lesion: hepatocellular carcinoma, dosed 92 weeks, study length 94 weeks
  TD50: 12600 mg/kg/day (inactive)
mouse, strain CFLP, females, in feed, site: lung, lesion: adenocarcinoma, dosed 92 weeks, study length 94 weeks
  TD50: 6490 mg/kg/day (inactive)
mouse, strain CFLP, females, in feed, site: lung, lesion: adenoma, dosed 92 weeks, study length 94 weeks
  carcinogen call: negative (inactive)
mouse, strain CFLP, males, in feed, site: any site (literature study), lesion: several types, types named in the paper, dosed 96 weeks, study length 96 weeks
  carcinogen call: negative (inactive)
mouse, strain CFLP, males, in feed, site: liver, lesion: hepatocellular adenoma, dosed 96 weeks, study length 96 weeks
  TD50: 420 mg/kg/day (inactive)
mouse, strain CFLP, males, in feed, site: liver, lesion: hepatocellular carcinoma, dosed 96 weeks, study length 96 weeks
  TD50: 3700 mg/kg/day (inactive)
mouse, strain CFLP, males, in feed, site: lung, lesion: adenocarcinoma, dosed 96 weeks, study length 96 weeks
  carcinogen call: negative (inactive)
mouse, strain CFLP, males, in feed, site: lung, lesion: adenoma, dosed 96 weeks, study length 96 weeks
  TD50: 932 mg/kg/day (inactive)
rat, strain Charles River CD (Sprague-Dawley), females, in feed, site: liver, lesion: hepatocellular adenoma, dosed 112 weeks, study length 112 weeks
  carcinogen call: negative (inactive)
rat, strain Charles River CD (Sprague-Dawley), females, in feed, site: liver, lesion: hepatocellular carcinoma, dosed 112 weeks, study length 112 weeks
  TD50: 1190 mg/kg/day (inactive)
rat, strain Charles River CD (Sprague-Dawley), females, in feed, site: pituitary gland, lesion: adenoma, dosed 112 weeks, study length 112 weeks
  TD50: 27.9 mg/kg/day (inactive)
rat, strain Charles River CD (Sprague-Dawley), males, in feed, site: liver, lesion: hepatocellular adenoma, dosed 119 weeks, study length 119 weeks
  carcinogen call: negative (inactive)
rat, strain Charles River CD (Sprague-Dawley), males, in feed, site: liver, lesion: hepatocellular carcinoma, dosed 119 weeks, study length 119 weeks
  TD50: 1080 mg/kg/day (inactive)
rat, strain Charles River CD (Sprague-Dawley), males, in feed, site: pituitary gland, lesion: adenoma, dosed 119 weeks, study length 119 weeks
  carcinogen call: negative (inactive)
rat, strain Mongrel, both sexes, by gavage, site: any site (literature study), lesion: several types, types named in the paper, dosed 95 weeks, study length 104 weeks
  TD50: 255 mg/kg/day

## CN(N=O)C(=O)c1c(N(C)N=O)ncn1C
rat, strain BD IX, both sexes, by gavage, site: forestomach, lesion: squamous-cell carcinoma, dosed 41 weeks, study length 52 weeks
  TD50: 0.183 mg/kg/day

## O=C1OC(=O)c2ccccc21
mouse, strain B6C3F1, females, in feed, site: any site (literature study), lesion: several types, types named in the paper, dosed 104 weeks, study length 104 weeks
  carcinogen call: negative (inactive)
mouse, strain B6C3F1, males, in feed, site: any site (literature study), lesion: several types, types named in the paper, dosed 104 weeks, study length 104 weeks
  carcinogen call: negative (inactive)
mouse, strain B6C3F1, males, in feed, site: liver, lesion: hepatocellular adenoma + hepatocellular carcinoma + neoplastic nodule, dosed 104 weeks, study length 104 weeks
  TD50: 7460 mg/kg/day
rat, strain Fischer 344, females, in feed, site: any site (literature study), lesion: several types, types named in the paper, dosed 105 weeks, study length 105 weeks
  TD50: 4500 mg/kg/day
rat, strain Fischer 344, females, in feed, site: lung, lesion: alveolar/bronchiolar adenoma, dosed 105 weeks, study length 105 weeks
  TD50: 6230 mg/kg/day (inactive)
rat, strain Fischer 344, males, in feed, site: any site (literature study), lesion: several types, types named in the paper, dosed 105 weeks, study length 105 weeks
  carcinogen call: negative (inactive)
